Literature values, collected in US20140296830A1 (priority 2013, published 2014).

Assays:
[1] = versus mepivacaine and lidocaine
[2] = pH 4

SMILES | potency relative to mepivacaine and lidocaine [1] | solution stability [2]
CCCCN1CCCCC1C(=O)Nc1c(C)cccc1C (centres unmarked) [bupivacaine] | about 4 times | 
CSCC[C@@H]1NC(=O)[C@H](CC(C)C)NC(=O)[C@H](CCCNC(=N)N)NC(=O)[C@H](CO)NC(=O)[C@@H]2CSSC[C@@H]3NC(=O)[C@H](CO)NC(=O)CNC(=O)[C@H]([C@@H](C)O)NC(=O)[C@H](CSSC[C@H](N)C(=O)N[C@@H](CCCCN)C(=O)NCC(=O)N[C@@H](CCCCN)C(=O)NCC(=O)N[C@@H](C)C(=O)N[C@@H](CCCCN)C(=O)N2)NC(=O)[C@H](CSSC[C@@H](C(N)=O)NC(=O)[C@H](CCCCN)NC(=O)CNC(=O)[C@H](CO)NC(=O)[C@H](CCCNC(=N)N)NC3=O)NC(=O)[C@H](CC(=O)O)NC(=O)[C@H](Cc2ccc(O)cc2)NC1=O [ziconotide] |  | stable at 45 °C for weeks
